Read-outs that look alike come from different tables or passages of the source.
Assays:
Assay type in all cases: cell-based
[1] = molecular target: T1, CFTR ΔF508 (Homo sapiens, UniProt P13569, DEL508-508); assay: Chronic TECC assay, primary bronchial epithelial cells of CF patients homozygous for CFTR ΔF508 (corrector, co-corrector and potentiator); conditions: for % Activity at 1 μM (AUC**): test compound at 1 μM
T1 construct: bronchial epithelial cells isolated from CF patients homozygous for the CFTR ΔF508 mutation; McGill University; Asterand; University of North Carolina hAEC-CF; host or cells: primary human bronchial epithelial cells from CF patients homozygous for ΔF508, differentiated at air-liquid interface
Method in brief: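 Primary bronchial epithelial cells from ΔF508-homozygous CF patients on collagen IV-coated Transwells were chronically treated with test compound plus corrector and potentiator, which were re-added before recording. Ieq was derived from PD and Rt in NaCl-Ringer, pH 7.4, at 37° C, with apical amiloride and bilateral forskolin, recorded every 2 min over 20 min. Ieq increase was normalized to controls, and EC50 was taken from per-well concentrations.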

[2] = molecular target: T2, ΔF508-CFTR (Homo sapiens, UniProt P13569, DEL508-508); assay: CFTR cell surface levels using HRP-tagged ΔF508-CFTR expressing CFBE cells, in the presence of a co-corrector
T2 construct: host or cells: CFBE41o-, doxycycline-inducible
Method in brief: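 Chemiluminescent read-out of surface HRP (15 min, dark) after PBS washes. Activity is normalized as 100×(sample−DMSO)/(3 μM co-corrector alone−DMSO).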

[3] = molecular target: T2, ΔF508-CFTR; assay: CFTR cell surface levels using HRP-tagged ΔF508-CFTR expressing CFBE cells, intrinsic corrector capacity; parameters: % Activation: concentration or dose not given beside the values
Method in brief: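 Surface ΔF508-CFTR was measured as HRP chemiluminescence from an extracellular-loop-4 tag, expressed as percent activity between DMSO and a […] corrector control.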

[4] = chronic TECC, AUC = full area under the curve upon forskolin stimulation, read-out: EC50 (nM) (AUC**)
[5] = chronic TECC, AUC = full area under the curve upon forskolin stimulation
[6] = HRP-tagged ΔF508-CFTR CFBE cells, in the presence of 3 μM co-corrector
[7] = HRP-tagged ΔF508-CFTR CFBE cells, in the presence of 3 μM co-corrector, read-out: EC50
[8] = HRP-tagged ΔF508-CFTR expressing CFBE41o- cells, compound alone (intrinsic corrector capacity), 20 hours at 33° C.
[9] = HRP-tagged ΔF508-CFTR expressing CFBE41o- cells, compound alone (intrinsic corrector capacity), 20 hours at 33° C., read-out: EC50

T2 sequence (P13569 with tags, fused parts or gaps DEL508-508): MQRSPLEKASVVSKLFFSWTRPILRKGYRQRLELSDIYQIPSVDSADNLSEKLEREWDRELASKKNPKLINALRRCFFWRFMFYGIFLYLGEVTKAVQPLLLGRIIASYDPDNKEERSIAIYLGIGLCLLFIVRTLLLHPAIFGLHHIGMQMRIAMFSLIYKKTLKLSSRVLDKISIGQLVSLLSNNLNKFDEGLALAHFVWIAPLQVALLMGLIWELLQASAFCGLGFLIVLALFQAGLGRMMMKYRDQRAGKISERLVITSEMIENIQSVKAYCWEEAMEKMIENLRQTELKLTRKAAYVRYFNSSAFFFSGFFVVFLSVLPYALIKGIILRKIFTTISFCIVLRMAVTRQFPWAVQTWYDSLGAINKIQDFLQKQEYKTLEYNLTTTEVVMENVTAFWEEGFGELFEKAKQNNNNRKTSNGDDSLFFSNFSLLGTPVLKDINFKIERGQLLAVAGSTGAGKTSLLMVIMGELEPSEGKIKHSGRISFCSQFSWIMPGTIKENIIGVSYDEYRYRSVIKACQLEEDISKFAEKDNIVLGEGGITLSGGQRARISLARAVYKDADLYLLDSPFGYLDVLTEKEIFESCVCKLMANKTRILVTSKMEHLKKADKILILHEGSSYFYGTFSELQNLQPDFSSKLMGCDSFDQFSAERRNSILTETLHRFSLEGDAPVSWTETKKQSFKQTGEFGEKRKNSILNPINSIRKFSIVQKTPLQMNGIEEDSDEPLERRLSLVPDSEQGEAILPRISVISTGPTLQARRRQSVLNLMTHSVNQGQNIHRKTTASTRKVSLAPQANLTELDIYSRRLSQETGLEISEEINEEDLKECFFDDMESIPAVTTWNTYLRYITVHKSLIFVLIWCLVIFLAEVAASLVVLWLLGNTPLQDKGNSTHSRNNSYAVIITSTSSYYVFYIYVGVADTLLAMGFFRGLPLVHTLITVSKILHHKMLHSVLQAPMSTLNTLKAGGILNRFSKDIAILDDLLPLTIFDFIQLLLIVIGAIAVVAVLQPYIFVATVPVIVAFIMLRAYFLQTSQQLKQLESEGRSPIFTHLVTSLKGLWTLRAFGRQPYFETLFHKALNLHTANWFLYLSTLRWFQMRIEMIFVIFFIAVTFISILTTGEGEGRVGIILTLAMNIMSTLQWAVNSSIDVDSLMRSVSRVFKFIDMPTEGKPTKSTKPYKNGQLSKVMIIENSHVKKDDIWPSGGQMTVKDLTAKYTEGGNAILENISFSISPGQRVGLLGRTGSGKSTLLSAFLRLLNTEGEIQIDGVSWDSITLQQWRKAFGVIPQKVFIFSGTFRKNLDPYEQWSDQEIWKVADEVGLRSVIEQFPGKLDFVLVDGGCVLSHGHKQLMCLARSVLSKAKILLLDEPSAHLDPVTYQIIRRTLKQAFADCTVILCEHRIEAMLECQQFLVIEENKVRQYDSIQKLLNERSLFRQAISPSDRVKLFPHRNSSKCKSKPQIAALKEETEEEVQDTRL
T1 sequence (P13569 with tags, fused parts or gaps DEL508-508): as above

Structure (SMILES) | EC50 [1, 4] [nM] | % Activity at 1 μM (AUC**) [1, 5] [%] | % Activation [2, 6] [%] | EC50 [2, 7] [nM] | % Activation [3, 8] [%] | EC50 [3, 9] [nM] | EC50 [1] [nM] | EC50 [2] [nM] | EC50 [3] [nM] | % Activity at 3 μM (AUC**) ([1]; chronic TECC, test compound at 3 μM, AUC = full area under the curve upon forskolin stimulation) [%]
COC(=O)N1CCC(COc2cc(C(=O)NS(C)(=O)=O)nc3c2c(C2CCC2)nn3-c2ccccc2)CC1 [Compound 297, methyl 4-[({3-cyclobutyl-6-[(methanesulfonyl)carbamoyl]-1-phenyl-1H-pyrazolo[3,4-b]pyridin-4-yl}oxy)methyl]piperidine-1-carboxylate] | ≤ 30 | 470.97 | 423.43 | 77.2 | 193.9 | 99.2 |  |  |  | 
CC(C)c1nn(-c2ccc(F)cc2)c2nc(C(=O)NS(C)(=O)=O)cc(N3CCC(C(C)(C)O)CC3)c12 [Compound 304, 1-(4-fluorophenyl)-4-[4-(2-hydroxypropan-2-yl)piperidin-1-yl]-N-(methanesulfonyl)-3-(propan-2-yl)-1H-pyrazolo[3,4-b]pyridine-6-carboxamide] |  | 194.54 | 507 | 56.1 | 308.2 | 203 |  |  |  | 
COCC1CCN(c2cc(C(=O)NS(C)(=O)=O)nc3c2c(C2CCC2)nn3-c2ccc(F)cc2)CC1 [Compound 316, 3-cyclobutyl-1-(4-fluorophenyl)-N-(methanesulfonyl)-4-[4-(methoxymethyl)piperidin-1-yl]-1H-pyrazolo[3,4-b]pyridine-6-carboxamide] | 45 | 452.88 | 555.55 | 24.4 | 380.5 | 183 |  |  |  | 
CC(C)(O)C1CCN(c2cc(C(=O)NS(C)(=O)=O)nc3c2c(C2CCC2)nn3-c2ccccc2)CC1 [Compound 317, 3-cyclobutyl-4-[4-(2-hydroxypropan-2-yl)piperidin-1-yl]-N-(methanesulfonyl)-1-phenyl-1H-pyrazolo[3,4-b]pyridine-6-carboxamide] | 24 | 311.08 | 450.35 | 48.8 | 269.6 | 93.5 |  |  |  | 
CS(=O)(=O)NC(=O)c1cc(OCC2CCOCC2)c2c(C3CCC3)nn(-c3ccc(F)cc3)c2n1 [Compound 318, 3-cyclobutyl-1-(4-fluorophenyl)-N-(methanesulfonyl)-4-[(oxan-4-yl)methoxy]-1H-pyrazolo[3,4-b]pyridine-6-carboxamide] |  | 439.94 | 359.5 | 184 | 183.45 | 411 |  |  |  | 
CC(C)c1nn(-c2ccc(F)cc2)c2nc(C(=O)NS(C)(=O)=O)cc(N3CCC(C4CCN(C)CC4)CC3)c12 [Compound 320, 1-(4-fluorophenyl)-N-(methanesulfonyl)-4-(1'-methyl[4,4'-bipiperidin]-1-yl)-3-(propan-2-yl)-1H-pyrazolo[3,4-b]pyridine-6-carboxamide] |  | 215.3 | 590.6 | 82.7 | 376.35 | 309 |  |  |  | 
COC(=O)N1CCC(COc2cc(C(=O)NS(C)(=O)=O)nc3c2c(C(C)C)nn3-c2ccc(F)cc2)CC1 [Compound 322, methyl 4-({[1-(4-fluorophenyl)-6-[(methanesulfonyl)carbamoyl]-3-(propan-2-yl)-1H-pyrazolo[3,4-b]pyridin-4-yl]oxy}methyl)piperidine-1-carboxylate] |  | 440.86 | 342.75 | 61.4 | 158.25 | 128 |  |  |  | 
CN1CCCCC1CCOc1cc(C(=O)NS(C)(=O)=O)nc2c1c(C1CCC1)nn2-c1ccccc1 (stereo not shown) [Compound 323, 3-cyclobutyl-N-(methanesulfonyl)-4-[2-(1-methylpiperidin-2-yl)ethoxy]-1-phenyl-1H-pyrazolo[3,4-b]pyridine-6-carboxamide] |  | 217.91 | 292.85 | 372 | 144.6 | 1370 |  |  |  | 
CC(C)N(CCOc1cc(C(=O)NS(C)(=O)=O)nc2c1c(C1CCC1)nn2-c1ccccc1)C1COC1 [Compound 325, 3-cyclobutyl-N-(methanesulfonyl)-4-{2-[(oxetan-3-yl)(propan-2-yl)amino]ethoxy}-1-phenyl-1H-pyrazolo[3,4-b]pyridine-6-carboxamide] |  | 317.57 | 309.8 | 153 | 151.4 | 335 |  |  |  | 
CS(=O)(=O)NC(=O)c1cc(N2CCC(CCN3CCOCC3)CC2)c2c(C3CCC3)nn(-c3ccccc3)c2n1 [Compound 331, 3-cyclobutyl-N-(methanesulfonyl)-4-{4-[2-(morpholin-4-yl)ethyl]piperidin-1-yl}-1-phenyl-1H-pyrazolo[3,4-b]pyridine-6-carboxamide] |  |  | 546.05 |  | 347.15 |  | 10 | 38.2 | 136 | 
CCOC(=O)N1CCN(c2cc(C(=O)NS(C)(=O)=O)nc3c2c(C(C)C)nn3-c2ccc(F)cc2)CC1 [Compound 337, ethyl 4-[1-(4-fluorophenyl)-6-[(methanesulfonyl)carbamoyl]-3-(propan-2-yl)-1H-pyrazolo[3,4-b]pyridin-4-yl]piperazine-1-carboxylate] |  | 299.50 | 532.3 | 30.5 | 404.9 | 134 |  |  |  | 
COCCN1CCN(c2cc(C(=O)NS(C)(=O)=O)nc3c2c(C(C)C)nn3-c2ccc(F)cc2)CC1 [Compound 340, 1-(4-fluorophenyl)-N-(methanesulfonyl)-4-[4-(2-methoxyethyl)piperazin-1-yl]-3-(propan-2-yl)-1H-pyrazolo[3,4-b]pyridine-6-carboxamide] |  | 216.53 | 319.2 | 786 | 138.95 | 1390 |  |  |  | 
CC(C)c1nn(-c2ccc(F)cc2)c2nc(C(=O)NS(C)(=O)=O)cc(N3CCC(N4CCCCC4)CC3)c12 [Compound 348, 4-([1,4'-bipiperidin]-1'-yl)-1-(4-fluorophenyl)-N-(methanesulfonyl)-3-(propan-2-yl)-1H-pyrazolo[3,4-b]pyridine-6-carboxamide] | 200 | 343.24 | 468.65 | 723 | 293.6 | 5970 |  |  |  | 
CS(=O)(=O)NC(=O)c1cc(N2CCC(N3CCCCC3)CC2)c2c(C3CCC3)nn(-c3ccccc3)c2n1 [Compound 365, 4-([1,4′-bipiperidin]-1′-yl)-3-cyclobutyl-N-(methanesulfonyl)-1-phenyl-1H-pyrazolo[3,4-b]pyridine-6-carboxamide] |  |  | 469.95 |  | 313 |  | 200 | 271 | 1670 | 
COCC1CCN(c2cc(C(=O)NS(=O)(=O)C3CCOC3)nc3c2c(C2CCC2)nn3-c2ccccc2)CC1 (stereo not shown) [Compound 369, 3-cyclobutyl-4-[4-(methoxymethyl)piperidin-1-yl]-N-(oxolane-3-sulfonyl)-1-phenyl-1H-pyrazolo[3,4-b]pyridine-6-carboxamide] | 8.3 | 583.16 | 444 | 106 | 292.7 | 101 |  |  |  | 
COCC1CCN(c2cc(C(=O)NS(C)(=O)=O)nc3c2c(C(C)C)nn3-c2cc(C)nc(C)c2)CC1 [Compound 370, 1-(2,6-dimethylpyridin-4-yl)-N-(methanesulfonyl)-4-[4-(methoxymethyl)piperidin-1-yl]-3-(propan-2-yl)-1H-pyrazolo[3,4-b]pyridine-6-carboxamide] |  |  | 343.2 | 691 | 172.2 | 1490 |  |  |  | 226.54
